Laboratory results published in article PMC10615259, “The Aurora kinase B relocation blocker LXY18 triggers mitotic catastrophe selectively in malignant cells” (PLOS ONE, 2023).

How the values were obtained:
Experiment in all cases: radiometric kinase assay (Eurofins KinaseProfiler)
Format in all cases: biochemical
Settings in all cases: 2 µM LXY18; Mg/ATP; 120 min; room temperature; no pre-incubation
[1] = target: T1, ABL (Homo sapiens, UniProt P00519, H396P)
T1 construct: gene ABL1; Eurofins KinaseProfiler panel kinase

[2] = target: T2, ABL (Homo sapiens, UniProt P00519)
T2 construct: gene ABL1; Eurofins KinaseProfiler panel kinase

[3] = target: T3, MKK3 (Homo sapiens, UniProt P46734)
T3 construct: gene MAP2K3; Eurofins KinaseProfiler panel kinase
T3 sequence (P46734 1-347): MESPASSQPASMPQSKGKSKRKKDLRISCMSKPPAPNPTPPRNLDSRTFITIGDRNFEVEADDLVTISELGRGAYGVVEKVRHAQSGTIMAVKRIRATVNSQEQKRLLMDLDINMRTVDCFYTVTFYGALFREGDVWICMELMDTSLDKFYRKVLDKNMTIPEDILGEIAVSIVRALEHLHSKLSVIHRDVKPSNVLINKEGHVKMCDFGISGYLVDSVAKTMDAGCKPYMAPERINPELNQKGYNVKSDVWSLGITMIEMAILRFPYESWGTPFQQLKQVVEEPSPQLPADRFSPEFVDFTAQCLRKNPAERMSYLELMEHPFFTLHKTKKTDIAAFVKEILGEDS

## COc1cc(NC(C)=O)cc(Oc2ccnc3ccc(Br)cc23)c1 [LXY18, N-(3-((6-bromoquinolin-4-yl)oxy)-5-methoxyphenyl)acetamide]
[1]
  % inhibition at 2 μM: MKK3, ABL, and an activating mutant ABL (H396P)
[2]
  % inhibition at 2 μM: The only positive hits in the kinome assay were MKK3, ABL, and an activating mutant
[3]
  % inhibition at 2 μM: The only positive hits in the kinome assay were MKK3, ABL, and an activating mutant
